Activity calls are given as the source filed them. The rule behind the calls is not given here.
Key:
[1] = molecular target: Muscarinic acetylcholine receptor M4 (Homo sapiens) (UniProt P08173); conditions: Compound concentration 10.0 uM
[2] = molecular target: T1, 5-hydroxytryptamine receptor 2B (Homo sapiens, UniProt P41595); assay: GPCRScan assay: inhibition of 5-HT2B; design: radioligand conc. used [nm] 1.0 – 2.0, parental cells stable HEK
[3] = molecular target: TGF-beta receptor type-1 (Homo sapiens, UniProt P36897); assay: NanoBRET (SGC Frankfurt) (TGFBR1)
[4] = species on record: Rattus norvegicus; conditions: Compound concentration 10.0 uM
[5] = molecular target: 5-hydroxytryptamine receptor 5A (Homo sapiens) (UniProt P47898); conditions: Compound concentration 10.0 uM
[6] = molecular target: T1, 5-hydroxytryptamine receptor 2B; conditions: Compound concentration 10.0 uM
[7] = molecular target: Alpha-1D adrenergic receptor (Homo sapiens) (UniProt P25100); conditions: Compound concentration 10.0 uM
[8] = molecular target: Beta-1 adrenergic receptor (Homo sapiens) (UniProt P08588); conditions: Compound concentration 10.0 uM
[9] = molecular target: Beta-3 adrenergic receptor (Homo sapiens) (UniProt P13945); conditions: Compound concentration 10.0 uM
Beta-3 adrenergic receptor (Homo sapiens), sequence (P13945 whole entry, looked up): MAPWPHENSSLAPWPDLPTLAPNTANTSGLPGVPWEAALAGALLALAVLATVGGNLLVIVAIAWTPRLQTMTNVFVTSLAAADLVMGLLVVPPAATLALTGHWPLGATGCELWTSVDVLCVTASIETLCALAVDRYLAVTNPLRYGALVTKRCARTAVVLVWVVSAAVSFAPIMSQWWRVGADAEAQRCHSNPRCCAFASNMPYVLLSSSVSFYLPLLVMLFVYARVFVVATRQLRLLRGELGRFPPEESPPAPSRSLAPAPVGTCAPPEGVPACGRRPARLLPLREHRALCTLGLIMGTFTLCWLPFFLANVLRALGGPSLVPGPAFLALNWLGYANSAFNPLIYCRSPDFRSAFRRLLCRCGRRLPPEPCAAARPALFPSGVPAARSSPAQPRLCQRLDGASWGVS

[10] = molecular target: 5-hydroxytryptamine receptor 7 (Homo sapiens) (UniProt P34969); conditions: Compound concentration 10.0 uM
[11] = molecular target: 5-hydroxytryptamine receptor 1B (Homo sapiens) (UniProt P28222); conditions: Compound concentration 10.0 uM
[12] = molecular target: D(4) dopamine receptor (Homo sapiens) (UniProt P21917); conditions: Compound concentration 10.0 uM
[13] = molecular target: D(1B) dopamine receptor (Homo sapiens) (UniProt P21918); conditions: Compound concentration 10.0 uM
[14] = molecular target: D(1A) dopamine receptor (Homo sapiens) (UniProt P21728); conditions: Compound concentration 10.0 uM
[15] = molecular target: Muscarinic acetylcholine receptor M2 (Homo sapiens) (UniProt P08172); conditions: Compound concentration 10.0 uM
[16] = molecular target: Alpha-1A adrenergic receptor (Homo sapiens) (UniProt P35348); conditions: Compound concentration 10.0 uM
[17] = molecular target: Alpha-2B adrenergic receptor (Homo sapiens) (UniProt P18089); conditions: Compound concentration 10.0 uM
[18] = molecular target: Sodium-dependent serotonin transporter (Homo sapiens) (UniProt P31645); conditions: Compound concentration 10.0 uM
Sodium-dependent serotonin transporter (Homo sapiens), sequence (P31645 whole entry, looked up): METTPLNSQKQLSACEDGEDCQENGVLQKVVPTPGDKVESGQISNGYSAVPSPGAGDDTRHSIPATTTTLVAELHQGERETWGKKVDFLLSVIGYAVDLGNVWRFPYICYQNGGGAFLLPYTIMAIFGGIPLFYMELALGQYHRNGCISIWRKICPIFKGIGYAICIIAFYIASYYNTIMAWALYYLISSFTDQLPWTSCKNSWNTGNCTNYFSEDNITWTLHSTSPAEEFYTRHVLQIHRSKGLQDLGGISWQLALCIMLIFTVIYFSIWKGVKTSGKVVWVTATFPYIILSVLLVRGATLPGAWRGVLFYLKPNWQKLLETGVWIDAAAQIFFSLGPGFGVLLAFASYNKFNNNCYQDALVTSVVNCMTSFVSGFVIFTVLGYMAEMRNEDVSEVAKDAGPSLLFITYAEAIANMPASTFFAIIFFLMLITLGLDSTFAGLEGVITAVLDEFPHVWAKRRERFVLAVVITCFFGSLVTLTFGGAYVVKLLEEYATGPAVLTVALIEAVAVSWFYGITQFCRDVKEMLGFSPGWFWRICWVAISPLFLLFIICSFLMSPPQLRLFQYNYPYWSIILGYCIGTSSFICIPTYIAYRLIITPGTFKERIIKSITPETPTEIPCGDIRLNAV

[19] = molecular target: Histamine H3 receptor (Homo sapiens) (UniProt Q9Y5N1); conditions: Compound concentration 10.0 uM
[20] = molecular target: Muscarinic acetylcholine receptor M5 (Homo sapiens) (UniProt P08912); conditions: Compound concentration 10.0 uM
[21] = molecular target: Histamine H1 receptor (Homo sapiens) (UniProt P35367); conditions: Compound concentration 10.0 uM
[22] = molecular target: 5-hydroxytryptamine receptor 6 (Homo sapiens) (UniProt P50406); conditions: Compound concentration 10.0 uM
[23] = molecular target: T2, GABA-A receptor; anion channel (Rattus norvegicus) (UniProt O09028+P15431+P18506+P18508+P19969+P20236+P23574+P23576+P28471+P28473+P30191+P62813+P63079+P63138+Q91ZM7+Q9ES14); conditions: Compound concentration 10.0 uM
[24] = molecular target: T3, Sodium-dependent dopamine transporter (Homo sapiens, UniProt Q01959); conditions: Compound concentration 10.0 uM
T3 sequence (Q01959 whole entry): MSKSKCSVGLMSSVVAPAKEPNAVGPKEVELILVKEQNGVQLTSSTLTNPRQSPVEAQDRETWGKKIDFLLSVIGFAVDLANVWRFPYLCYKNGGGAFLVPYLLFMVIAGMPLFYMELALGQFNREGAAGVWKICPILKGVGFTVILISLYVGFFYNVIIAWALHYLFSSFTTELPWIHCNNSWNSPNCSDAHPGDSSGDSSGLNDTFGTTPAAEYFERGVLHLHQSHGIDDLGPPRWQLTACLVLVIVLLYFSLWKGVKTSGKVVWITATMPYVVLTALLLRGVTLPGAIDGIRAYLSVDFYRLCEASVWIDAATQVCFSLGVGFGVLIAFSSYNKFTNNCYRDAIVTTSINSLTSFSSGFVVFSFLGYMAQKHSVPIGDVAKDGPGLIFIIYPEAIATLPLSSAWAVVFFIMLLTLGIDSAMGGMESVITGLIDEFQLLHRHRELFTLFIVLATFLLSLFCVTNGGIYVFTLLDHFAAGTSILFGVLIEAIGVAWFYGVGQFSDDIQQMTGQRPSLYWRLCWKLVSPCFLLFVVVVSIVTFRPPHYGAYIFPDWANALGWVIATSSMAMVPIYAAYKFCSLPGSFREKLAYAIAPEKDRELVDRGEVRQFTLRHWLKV

[25] = molecular target: 5-hydroxytryptamine receptor 3A (Homo sapiens) (UniProt P46098); conditions: Compound concentration 10.0 uM
[26] = molecular target: Alpha-1B adrenergic receptor (Homo sapiens) (UniProt P35368); conditions: Compound concentration 10.0 uM
Alpha-1B adrenergic receptor (Homo sapiens), sequence (P35368 whole entry): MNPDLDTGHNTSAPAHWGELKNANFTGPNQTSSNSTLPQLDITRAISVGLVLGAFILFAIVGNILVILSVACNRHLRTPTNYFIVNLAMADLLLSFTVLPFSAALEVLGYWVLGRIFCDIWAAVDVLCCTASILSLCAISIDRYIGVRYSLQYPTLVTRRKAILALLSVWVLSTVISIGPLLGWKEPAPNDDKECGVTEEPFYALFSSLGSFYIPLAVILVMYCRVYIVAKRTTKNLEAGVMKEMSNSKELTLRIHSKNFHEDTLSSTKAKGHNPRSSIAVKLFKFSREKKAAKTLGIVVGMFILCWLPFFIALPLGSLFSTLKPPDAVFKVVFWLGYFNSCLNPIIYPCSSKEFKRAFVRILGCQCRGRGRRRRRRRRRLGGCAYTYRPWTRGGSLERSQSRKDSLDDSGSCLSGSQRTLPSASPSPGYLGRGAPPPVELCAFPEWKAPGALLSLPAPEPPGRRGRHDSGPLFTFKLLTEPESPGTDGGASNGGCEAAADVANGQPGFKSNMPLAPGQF

[27] = molecular target: 5-hydroxytryptamine receptor 2C (Homo sapiens) (UniProt P28335); conditions: Compound concentration 10.0 uM
[28] = molecular target: Muscarinic acetylcholine receptor M3 (Homo sapiens) (UniProt P20309); conditions: Compound concentration 10.0 uM
[29] = molecular target: D(2) dopamine receptor (Homo sapiens) (UniProt P14416); conditions: Compound concentration 10.0 uM
[30] = molecular target: T4, Activin receptor type-1B (Homo sapiens, UniProt P36896); assay: NanoBRET (SGC Frankfurt) (ACVR1B)
T4 sequence (P36896 whole entry): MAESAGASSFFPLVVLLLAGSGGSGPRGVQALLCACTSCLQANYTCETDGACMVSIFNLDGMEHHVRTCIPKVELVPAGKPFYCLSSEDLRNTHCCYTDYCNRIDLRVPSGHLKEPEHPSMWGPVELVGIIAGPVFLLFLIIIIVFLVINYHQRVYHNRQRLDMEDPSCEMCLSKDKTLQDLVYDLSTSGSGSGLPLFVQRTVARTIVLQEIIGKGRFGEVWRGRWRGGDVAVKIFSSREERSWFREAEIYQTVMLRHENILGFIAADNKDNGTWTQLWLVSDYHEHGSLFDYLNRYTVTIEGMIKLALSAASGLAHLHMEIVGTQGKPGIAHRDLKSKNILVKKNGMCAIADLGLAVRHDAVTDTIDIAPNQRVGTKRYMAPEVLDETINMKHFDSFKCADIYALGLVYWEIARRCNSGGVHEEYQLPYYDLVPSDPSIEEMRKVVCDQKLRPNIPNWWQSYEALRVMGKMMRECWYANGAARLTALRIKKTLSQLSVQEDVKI

[31] = molecular target: Muscarinic acetylcholine receptor M1 (Homo sapiens) (UniProt P11229); conditions: Compound concentration 10.0 uM
[32] = molecular target: 5-hydroxytryptamine receptor 2A (Homo sapiens) (UniProt P28223); conditions: Compound concentration 10.0 uM
5-hydroxytryptamine receptor 2A (Homo sapiens), sequence (P28223 whole entry): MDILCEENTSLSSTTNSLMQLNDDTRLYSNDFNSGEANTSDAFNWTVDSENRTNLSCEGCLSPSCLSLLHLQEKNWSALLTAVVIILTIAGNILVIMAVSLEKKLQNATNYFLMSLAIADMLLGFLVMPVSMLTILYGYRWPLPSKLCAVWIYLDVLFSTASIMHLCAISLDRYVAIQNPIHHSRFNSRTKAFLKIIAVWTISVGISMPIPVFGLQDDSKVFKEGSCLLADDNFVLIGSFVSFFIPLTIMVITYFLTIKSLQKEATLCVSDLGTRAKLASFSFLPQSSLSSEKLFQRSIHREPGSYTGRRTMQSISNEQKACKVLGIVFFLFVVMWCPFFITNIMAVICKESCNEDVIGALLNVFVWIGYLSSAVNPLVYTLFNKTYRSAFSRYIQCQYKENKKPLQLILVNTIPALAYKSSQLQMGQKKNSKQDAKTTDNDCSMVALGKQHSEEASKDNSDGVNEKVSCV

[33] = molecular target: Sigma intracellular receptor 2 (Homo sapiens) (UniProt Q5BJF2); conditions: Compound concentration 10.0 uM
Sigma intracellular receptor 2 (Homo sapiens), sequence (Q5BJF2 whole entry): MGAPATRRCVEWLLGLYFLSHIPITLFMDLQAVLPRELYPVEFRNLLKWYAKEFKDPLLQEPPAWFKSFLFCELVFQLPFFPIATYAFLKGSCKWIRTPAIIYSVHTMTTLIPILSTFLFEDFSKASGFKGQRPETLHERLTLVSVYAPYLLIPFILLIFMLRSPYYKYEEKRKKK

[34] = molecular target: 5-hydroxytryptamine receptor 1A (Homo sapiens) (UniProt P08908); conditions: Compound concentration 10.0 uM
5-hydroxytryptamine receptor 1A (Homo sapiens), sequence (P08908 whole entry): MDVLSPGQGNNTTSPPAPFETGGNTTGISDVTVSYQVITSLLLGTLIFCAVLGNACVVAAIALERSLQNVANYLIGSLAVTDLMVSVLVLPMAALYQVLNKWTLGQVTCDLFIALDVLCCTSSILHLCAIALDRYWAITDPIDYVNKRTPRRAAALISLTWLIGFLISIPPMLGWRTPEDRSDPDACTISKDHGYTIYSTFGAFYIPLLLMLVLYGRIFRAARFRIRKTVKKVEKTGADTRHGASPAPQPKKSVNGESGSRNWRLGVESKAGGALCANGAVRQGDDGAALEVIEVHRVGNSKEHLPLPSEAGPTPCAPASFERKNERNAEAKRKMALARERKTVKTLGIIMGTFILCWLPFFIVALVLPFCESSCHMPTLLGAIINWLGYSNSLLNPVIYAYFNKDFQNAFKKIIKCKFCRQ

[35] = molecular target: Alpha-2A adrenergic receptor (Homo sapiens) (UniProt P08913); conditions: Compound concentration 10.0 uM
Alpha-2A adrenergic receptor (Homo sapiens), sequence (P08913 whole entry): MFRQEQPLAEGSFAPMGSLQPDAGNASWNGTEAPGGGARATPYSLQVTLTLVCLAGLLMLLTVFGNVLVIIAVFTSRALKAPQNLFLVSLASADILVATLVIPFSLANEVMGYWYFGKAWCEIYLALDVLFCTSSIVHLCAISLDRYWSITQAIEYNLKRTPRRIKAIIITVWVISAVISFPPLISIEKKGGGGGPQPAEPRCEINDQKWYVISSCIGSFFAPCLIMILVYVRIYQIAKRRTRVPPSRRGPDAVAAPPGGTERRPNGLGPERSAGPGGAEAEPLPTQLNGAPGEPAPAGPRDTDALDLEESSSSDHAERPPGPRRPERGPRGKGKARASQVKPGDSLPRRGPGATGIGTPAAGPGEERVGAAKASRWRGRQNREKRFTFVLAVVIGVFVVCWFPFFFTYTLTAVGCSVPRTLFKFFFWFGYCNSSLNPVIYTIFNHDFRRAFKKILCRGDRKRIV

[36] = molecular target: Alpha-2C adrenergic receptor (Homo sapiens) (UniProt P18825); conditions: Compound concentration 10.0 uM
[37] = molecular target: Beta-2 adrenergic receptor (Homo sapiens) (UniProt P07550); conditions: Compound concentration 10.0 uM
[38] = molecular target: GABA-A receptor; anion channel; assay: GPCRScan assay: inhibition of GABAA/BZP; assay type: protein-complex assay, Rattus norvegicus; design: radioligand conc. used [nm] 0.6 – 4.0, parental cells brain tissue
[39] = molecular target: Phosphatidylinositol 4,5-bisphosphate 3-kinase catalytic subunit alpha isoform (Homo sapiens, UniProt P42336); assay: NanoBRET (SGC Frankfurt) (PIK3CA)
[40] = molecular target: T2, GABA-A receptor; anion channel (Rattus norvegicus); conditions: Compound concentration 10.0 uM; remark: listed apart in the source
[41] = molecular target: D(3) dopamine receptor (Homo sapiens) (UniProt P35462); conditions: Compound concentration 10.0 uM
[42] = molecular target: T4, Activin receptor type-1B; assay: Reporter gene assay (ACVR1B)
[43] = molecular target: T4, Activin receptor type-1B; assay: Lathascreen (Takeda) (ACVR1B)
[44] = molecular target: 5-hydroxytryptamine receptor 1D (Homo sapiens) (UniProt P28221); conditions: Compound concentration 10.0 uM
[45] = molecular target: Calcium/calmodulin-dependent protein kinase type 1B (Homo sapiens, UniProt Q6P2M8); assay: NanoBRET (SGC Frankfurt) (PNCK)
[46] = molecular target: T4, Activin receptor type-1B; assay: Radioactive kinase assay (ACVR1B)
[47] = molecular target: T3, Sodium-dependent dopamine transporter; assay: GPCRScan assay: inhibition of DAT; design: radioligand conc. used [nm] 3.6 – 16.0, parental cells stable HEK
[48] = molecular target: Epithelial discoidin domain-containing receptor 1 (Homo sapiens, UniProt Q08345); assay: NanoBRET (SGC Frankfurt) (DDR1)
[49] = molecular target: Histamine H4 receptor (Homo sapiens) (UniProt Q9H3N8); conditions: Compound concentration 10.0 uM
[50] = molecular target: Tyrosine-protein kinase JAK1 (Homo sapiens, UniProt P23458); assay: NanoBRET (SGC Frankfurt) (JAK1)
[51] = molecular target: Histamine H2 receptor (Homo sapiens) (UniProt P25021); conditions: Compound concentration 10.0 uM
[52] = molecular target: 5-hydroxytryptamine receptor 1E (Homo sapiens) (UniProt P28566); conditions: Compound concentration 10.0 uM

T1 sequence (P41595 whole entry): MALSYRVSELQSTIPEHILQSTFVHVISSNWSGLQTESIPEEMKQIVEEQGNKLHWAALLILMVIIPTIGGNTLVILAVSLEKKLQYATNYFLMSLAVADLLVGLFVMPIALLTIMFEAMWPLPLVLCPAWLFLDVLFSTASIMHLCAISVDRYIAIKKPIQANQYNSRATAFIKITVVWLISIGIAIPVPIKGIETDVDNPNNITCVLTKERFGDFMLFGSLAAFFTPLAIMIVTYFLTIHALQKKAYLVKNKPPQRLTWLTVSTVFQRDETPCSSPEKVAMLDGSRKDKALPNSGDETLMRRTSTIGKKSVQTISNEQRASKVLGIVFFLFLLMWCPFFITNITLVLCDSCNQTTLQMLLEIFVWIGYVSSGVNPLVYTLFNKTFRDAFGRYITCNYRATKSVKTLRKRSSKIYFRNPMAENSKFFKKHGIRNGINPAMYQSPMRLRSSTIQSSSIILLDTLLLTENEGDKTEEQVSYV
Muscarinic acetylcholine receptor M4 (Homo sapiens), sequence (P08173 whole entry): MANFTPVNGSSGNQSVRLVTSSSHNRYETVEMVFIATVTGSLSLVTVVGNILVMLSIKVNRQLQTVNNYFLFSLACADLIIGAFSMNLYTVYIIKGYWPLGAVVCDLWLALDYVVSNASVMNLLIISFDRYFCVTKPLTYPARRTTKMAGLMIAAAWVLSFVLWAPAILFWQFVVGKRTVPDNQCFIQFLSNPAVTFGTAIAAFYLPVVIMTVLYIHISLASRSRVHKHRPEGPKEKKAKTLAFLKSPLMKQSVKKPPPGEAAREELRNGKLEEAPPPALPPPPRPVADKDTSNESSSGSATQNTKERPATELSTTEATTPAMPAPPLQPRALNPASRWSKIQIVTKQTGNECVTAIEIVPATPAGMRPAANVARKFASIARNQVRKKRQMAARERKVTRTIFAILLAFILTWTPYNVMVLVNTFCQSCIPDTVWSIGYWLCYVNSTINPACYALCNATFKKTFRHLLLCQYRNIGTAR

Cc1cnc(-c2cc(Cl)ccc2F)cc1-n1c(=O)n(CC(N)=O)c2ccccc21 [Al11]
inhibition [1]: 3.09% | Ki ([2]; read-out: Ki): 1590 nM | Ki ([2]; read-out: pKi (converted)): 1570 nM | IC50 [3]: > 10000 nM (not active) | inhibition [4]: 27.1% | inhibition [5]: -0.66% | inhibition [6]: 72% | inhibition [7]: 2.71% | inhibition [8]: 25.8% | inhibition [9]: 9.94% | inhibition [10]: 12.1% | inhibition [11]: -7.07% | inhibition [12]: -1.38% | inhibition [13]: 6.12% | inhibition [14]: -2.08% | inhibition [15]: 14.4% | inhibition [16]: 0.25% | inhibition [17]: 17.3% | inhibition [18]: 14.3% | inhibition [19]: -8.16% | inhibition [20]: 1.56% | inhibition [21]: -2.43% | inhibition [22]: 14.1% | inhibition [23]: 50.2% | inhibition [24]: -4.34% | inhibition [25]: 19.9% | inhibition [26]: 5.45% | inhibition [27]: 10.2% | inhibition [28]: -5.28% | inhibition [29]: -1.99% | IC50 [30]: > 10000 nM (not active) | inhibition [31]: -1.17% | inhibition [32]: 11.2% | inhibition [33]: 41.6% | inhibition [34]: 12% | inhibition [35]: 3.1% | inhibition [36]: 17.9% | inhibition [37]: 16.7% | Ki [38]: 2750 nM

Cc1cnc(-c2cc(Cl)ccc2F)cc1-n1c(=O)n(CC(N)=O)c2cnccc21 [TP-008]
inhibition [1]: -3.08% | IC50 [39]: > 20000 nM (not active) | Ki ([2]; read-out: Ki): 1880 nM | inhibition [4]: -8.98% | inhibition [5]: 16.8% | inhibition [6]: 70.5% | inhibition [40]: 27.3% | inhibition [41]: 2.27% | inhibition [9]: 3.94% | IC50 [42]: 526 nM (active) | inhibition [10]: 3.98% | inhibition [11]: 19.5% | inhibition [12]: 5.41% | IC50 [43]: 1000 nM (active) | inhibition [44]: 5.53% | inhibition [14]: 12.9% | inhibition [15]: 2.23% | inhibition [16]: -2.17% | inhibition [17]: 18.1% | IC50 [45]: > 20000 nM (not active) | inhibition [18]: 3.84% | inhibition [19]: 30.5% | inhibition [20]: -5.69% | inhibition [21]: 0.849% | inhibition [22]: -4.28% | inhibition [23]: 31.8% | IC50 [46]: 126 nM (active) | inhibition [24]: 87.6% | inhibition [25]: -6.36% | Ki [47]: 10000 nM | pKi [47]: 5 | IC50 [48]: > 20000 nM (not active) | inhibition [26]: 3.76% | inhibition [27]: 15.5% | inhibition [28]: -7.48% | inhibition [49]: 26.6% | inhibition [29]: -5.48% | inhibition [31]: -3.81% | inhibition [32]: -0.869% | inhibition [33]: -2.75% | inhibition [34]: 22.9% | inhibition [35]: -0.767% | inhibition [36]: -5.16% | inhibition [37]: 13.9% | IC50 [50]: > 20000 nM (not active) | inhibition [51]: 6.53% | inhibition [52]: -5.81%

Reference: ChEMBL document CHEMBL4507308 (2021)
